Legend:
Format in all cases: cell-based
H358 lung cancer cells [1] = test: [3H]-thymidine incorporation (DNA synthesis) assay in H358 cells
Method: (A) Structures of 1a, and the acetylated side chain of a lysine residue within the polypeptide chain of a protein targeted by the acetylating enzyme (R1 and R2 are the main chain elements on both sides of the lysyl residue). (B) [^3H]-thymidine incorporation into DNA of H358 cells pulsed for 6 hrs at three different time points after the addition of increasing concentrations of 1a, i.e., at 6-12 hrs (12 hr curve), at 18-24 hours (24 hr curve), or at 42-48 hrs (48 hr curve). Incorporation is represented as a percentage relative to control (untreated) cells. (C) Cell cycle analysis of propidium iodide-stained cells harvested at various times after addition of 50 μM 1a. % of cells in G1, S, and G2 represents the average of two independent profiles. (D) Western analysis of histone H3 lysine 9 acetylation, histone H3 lysine 56 acetylation, histone H3 lysine 9 methylation, and total histone H3, before “c” or at the indicated times after addition of 50 μM 1a. Each lane represents 60 μg cellular protein.
(§1) Control cells were left untreated. […] Control cells were left untreated.
Cells were either labeled immediately before treatment (starting DNA synthesis rate), or subjected to the indicated treatments and then pulsed on successive days until day 4. DNA synthesis is represented as the percent of starting DNA synthesis rate. Viability was determined for each treatment condition 24 hours post-start of treatment by the trypan blue exclusion assay, with percentages of viable cells indicated to the right of the graph.
H358 cells (2,000/well) in 96-well plates were treated with 1, 10 or 50 μM of spd-1a, spd-2a, spd-3a, spm3, or spm2 for 12 hours. Triplicate wells of cells were pulsed 6 hours with 0.5 μCi [^3H]-thymidine (NEN, Boston Mass.) post-start of drug treatment, and harvested onto filter paper using a Brandel Harvester and subjected to scintillation counting. Untreated cells were pulsed from 0-6 hrs to establish the initial rate of incorporation.
Cells were plated in 96-well plates (2000 cells per well to insure conditions for exponential growth for untreated cells over the time course of the experiment) and exposed to the following treatments: 1a (50 μM); camptothecin (Sigma, St Louis, Mo. 5 nM, 18 hours); cisplatin (Platinol, obtained through local pharmacies, 2 μM, 1 hour 15 minutes), 5-fluorouracil (5FU, Adrucil™, obtained through local pharmacies, 2 μM, 1 hour 15 minutes), Taxotere (provided by the late Dr. Pierre Potier, 5 nM, 18 hours). UVC treatment (40 J/m^2) using a Stratalinker™, Stratagene, La Jolla, Calif.) was carried using medium lacking phenol red. At 0-6 hr, 18-24 hr (day 1), 42-48 hr […], 66-72 hr (day 3), and 90-96 hr (day 4) post-start of treatment, triplicate wells were incubated with 0.5 μCi [^3H]-thymidine (NEN, Boston Mass.), harvested onto filter paper, and subjected to scintillation counting. Trypan blue exclusion assays for cell membrane integrity were carried out as known in the art.
The present inventors used 96-well viability assays as described in Saadatmandi et al (Cancer Gene Therapy (2002) 9:[…]) to examine the effect of 1a on DNA synthesis in H358 cells, as well as the combined effects of 1a and chemotherapeutic agents. H358 cells were plated in 96-well plates at 3000 cells per well. […]

H358 cells = test: Trypan blue exclusion viability assay
H358 lung cancer cells [2] = settings: 3 days
Method: as §1
Cells were given fresh inhibitor on the first, second, and third days of treatment and viability was measured on the 4th day (i.e. 3 days post start of treatment). […]
(A) Structure of Spd-3a. (B) Western analysis of histone H3K9-acetylation and total histone H3, measured in control, untreated H358 lung cancer cells “C” or in H358 cells incubated 12 hours in the presence of 50 μM Spd-2a or Spd-3a. Each lane represents 60 μg cellular protein. (C) [3H]-thymidine incorporation (counts per minute) into DNA of H358 cells during a 6 hour pulse beginning at 42 hours post-start of treatment. Treatments were as follows (bars 1-6 left to right): (1) control: no treatment; (2) CPT alone: 5 nM 18 hours; (3) 3a alone: 50 μM; (4-6) 3a+CPT: CPT (5 nm, 18 hours)+3a at indicated dose. After 18 hours, CPT was removed and medium was replaced with fresh medium containing Spd-3a at the indicated dose. Each bar represents the average of triplicates. (D) 3-day 96-well viability assay of H358 cells grown in the presence of increasing amounts of Spd-2a or Spd-3a, with or without CPT (5 nM 18 hours). […] Each data point represents the average of three wells.
Date of exp: Jul. […] Date of exp: Sep.
Cells were plated in 96-well plates at 2000 cells per well and treated with the indicated doses of spd-3a. Cell viability was measured by the MTS assay 3 days later.
DLD-1 cells or H358 cells were plated in 96-well plates at 2000 cells per well and treated with the indicated doses of (A) spm-3 or (B) spm-2. (C) Cell viability was measured by the MTS assay 3 days later. Similar experiment using GT41 fibroblasts with spm2 or spm 3. Each assay point represents an average of duplicates. […]

[3] = system: thymidine dimers in DNA of H358 cells; test: Nucleotide excision repair assay (thymidine dimer slot blot) after UVC; settings: 50 μM 1a, 24 hours after 40 J/m^2 UVC (untreated: 50%)
Method: Also shown are controls for no treatment (“c” minus 1a) or treatment with 1a only (“c” plus 1a). Each lane represents 60 μg protein. […] Each lane represents 60 μg protein.
For NER, a slot blot immunoassay was used to detect the loss of thymidine dimers from the DNA of UVC treated cells as previously described. An antibody specific for cyclobutane pyrimidine dimers, the major photoproduct produced by UVC treatment, was purchased from Kamiya Biomedical Co (Seattle, Wash.; anti-thymidine dimer, clone KTM53) and used at 1:40 dilution.

## CC(C)(COP(=O)(O)OP(=O)(O)OC[C@H]1O[C@@H](n2cnc3c(N)ncnc32)[C@H](O)[C@@H]1OP(=O)(O)O)[C@@H](O)C(=O)NCCC(=O)NCCSCC(=O)NCCCNCCCCN [1a, spermidine[N1]-CoA]
H358 lung cancer cells [1]; 50 μM 1a + 5FU 2 μM
  sensitization to 5-FU: sensitized
H358 cells; Homo sapiens, NCI-H358, 18 h, read-out: cell viability, single agent
  viability at 50 µM: ≥ 96%
H358 cells; human, 24 h
  cell viability, single agent: ≥ 96%
H358 lung cancer cells [2]; human
  suppression of 3 day cell viability: 60-70%
[3]
  decrease of thymidine dimers: 40%

## CC(=O)NCCSCC(=O)NCCCNCCCCNCCCN [spm-3]
H358 lung cancer cells [1]; 1, 10 or 50 μM, 12 hours
  inhibition of DNA synthesis: inhibit DNA synthesis
H358 lung cancer cells [2]; spm single agent
  suppression of cancer cell growth and viability: effective as single agents

Source: patent US10617656B2, “Methods of increasing the cytotoxicity of chemotherapeutic agents with multisubstrate inhibitors of histone, protein-Lys, polyamine acetylation, and polyamine metabolism” (Vanderbilt University, priority 2010, dated 2020)
